Assays:
[1] = PK of orally formulated idasanutlin in subcutaneous NGP neuroblastoma xenograft model; type: in vivo; settings: single oral dose equivalent to 100 mg/kg active idasanutlin, subcutaneous NGP xenograft mice, preliminary studies
Protocol: We previously conducted similar PK/PD analyses of orally formulated idasanutlin in preliminary studies of a subcutaneous NGP neuroblastoma xenograft model after a single oral dose equivalent to 100 mg/kg of active idasanutlin (Fig. S8, Supporting Information).
Figure S8. PK and PD analysis of orally formulated idasanutlin in a TP53 wt subcutaneous xenograft model of neuroblastoma. Female CD1 nude mice were implanted subcutaneously with […] TP53 wt, MDM2 and MYCN amplified NGP neuroblastoma cells. A) PK analysis of idasanutlin levels using LC-MS in plasma samples harvested at the indicated time points from tumour bearing mice treated with a single dose equivalent to 100mg/kg of active idasanutlin by oral gavage. PD profiling for B) induction of the p53 pathway using Western analysis of p53, p21, and MDM2 levels in tumours, and C) MIC-1 levels in plasma harvested at the indicated time points from subcutaneous NGP tumour bearing mice treated with a single dose of idasanutlin by oral gavage. n=3 mice per time point. CTR, control.
(1 picture or pasted object on this page, not shown here)

NB1691 cells = system: NB1691 cells; set-up: method as in PMID 25844600; settings: 72 h, read-out: 72 h GI50 concentration; cited from earlier work
[2] = system: SHSY5Y-Luc orthotopic tumours; test: Efficacy study in SHSY5Y-Luc orthotopic tumour bearing mice; type: in vivo; settings: for Reduction in bioluminescence vs. control: RO6839921 eq. 100 mg/kg IV weekly, temozolomide 34 mg/kg PO daily x5; for %ILS (Median): increase in lifespan vs. control based on median survival
Protocol: (§1) All in vivo experiments were approved by the licencing and ethical committee of the IRCCS San Martino‐IST (Genoa, Italy), the Italian Ministry of Health, Newcastle University and the UK Government Home Office. Orthotopic murine SHSY5Y‐Luc or NB1691‐Luc models were established and monitored using bioluminescence (BLI) IVIS imaging, as previously described.18, 19, 20 RO6839921 (equivalent to 100 mg/kg of active idasanutlin) and temozolomide (34 mg/kg equivalent to 100 mg/m^2 were given by IV tail vein injection and oral gavage, respectively. Tumour bearing mice were randomised into n = 3/group and n = 8/group for pharmacokinetic (PK)/pharmacodynamic (PD) studies and efficacy studies, respectively, and samples taken at the indicated time points (Supporting Information Fig. S1). To minimise esterase activity, 0.2% dichlorvos (Sigma‐Aldrich) was added to blood samples. […] Animals were monitored 2–3 times weekly and euthanized humanely just before showing signs of illness/suffering such as abdominal dilatation, paraplegia, dehydration, or severe weight loss. Percentage increase in lifespan (%ILS) was calculated based on both median and mean survival to humane endpoint, as previously described.5 For more detailed procedures see Supporting Information.
(§2) The efficacy of RO6839921 alone and in combination with temozolomide was assessed in SHSY5Y‐Luc and NB1691‐Luc orthotopic tumour bearing mice. The intermittent schedule used is equivalent to one cycle of treatment over a 3 week period (Fig. S1, Supporting Information). Mice were randomised into control, RO6839921 (once per week for 3 weeks), temozolomide (daily x5/3 weeks; consistent with the currently used clinical dosing schedule in the BEACON Trial (NCT02308527)), or RO6839921 and temozolomide treatment groups (n = 8/group; Fig. S1, Supporting Information).
(§3) Supplementary Information
(§4) Detailed methods of orthotopic in vivo experiments
(§5) Five week old female athymic Nude-Foxn1nu mice (Envigo, Bresso, Italy) were anesthetized, subjected to a laparotomy and orthotopically injected with 1×10^6 SHSY5Y-Luc or NB1691-Luc neuroblastoma cells into the capsule of the left adrenal gland, as previously described (1-3). […]
(§6) using BLI IVIS imaging for tumour development (~2-3 weeks) prior to commencement of treatment. […]
(§7) 10min and stored at -80°C. For efficacy studies, SHSY5Y-Luc or NB1691-Luc tumour bearing mice were randomized […]
(§8) temozolomide (34mg/kg, daily x5 only by oral gavage) or RO6839921 and temozolomide treatment groups with 8 mice per group (Figure S1), and monitored by IVIS imaging for tumour growth. Baseline bioluminescence were measured prior to initiation of treatment on Day 1, and then during treatment on Days 8 (BLI1) and 15 (BLI2) (Figure S1). Twenty-four hours after the end of treatment, 3 mice per group were sacrificed for PK and PD analyses, and the remaining 5 mice per group were monitored for survival to humane endpoint (Figure S1). Animals were monitored 2-3 times weekly

[3] = system: NB1691-Luc orthotopic tumours; test: Efficacy study in NB1691-Luc orthotopic tumour bearing mice; type: in vivo; settings: for Reduction in bioluminescence vs. control: RO6839921 eq. 100 mg/kg IV weekly, temozolomide 34 mg/kg PO daily x5; for %ILS (Median): increase in lifespan vs. control based on median survival
Protocol: as §1, §2, §3, §4, §5, §6, §7, §8

[4] = system: NB1691-Luc orthotopic tumours; test: IHC analysis of NB1691-Luc orthotopic tumours after one treatment cycle; type: in vivo, mice; settings: 24 h after one treatment cycle, n = 3
Protocol: Tumours were disaggregated in Phosphosafe buffer (Merck Millipore) using the Medimachine with Medicons inserts (BD Biosciences, Oxford, UK) and Western analysis carried out as previously described.21 Human MIC‐1 assays were performed according to manufacturer's protocols (R&D Systems). IHC was performed using validated protocols and the Ventana Benchmark Ultra automated system (Ventana Medical Systems, Inc, Tucson, AZ, USA) in the Cellular Pathology Department, Royal Victoria Infirmary, Newcastle upon Tyne, UK.
Figure 3 MIC‐1 levels and IHC analysis of Ki67, p53, p21, and cleaved caspase 3 (CC3) in orthotopic tumours in response to one cycle of RO6839921 and temozolomide alone and in combination. […] Statistically significant differences vs. control were determined by unpaired t‐tests. […] Graphical representation of quantification of % positive Ki67, p53, p21, and CC3 staining in (d) NB1691‐Luc and (e) SHSY5Y‐Luc orthotopic tumours using Imagescope software and algorithms (Leica Biosystems, Newcastle upon Tyne, UK) and/or scored for positive immunostaining by a consultant pathologist (KW). n = 3 mice per group. […] Statistically significant differences were determined by one‐way ANOVA with Bonferroni post‐hoc tests and paired testing vs. control. p ≤ 0.05 (*); 0.01 (**); 0.001 (***); 0.0001 (****). […]

[5] = set-up: method as in PMID 16047361, PMID 9744506, PMID 9738573, PMID 17114659; settings: clinical data in children; cited from earlier work
[6] = after 1 week of treatment (Day 8/BLI1)
[7] = after 2 weeks of treatment (Day 15/BLI2)
[8] = increase in lifespan vs. control based on mean survival
[9] = survival to humane endpoint, n = 5/group, one treatment cycle

SMILES	Plasma concentration of active idasanutlin [1] [ng/mL]	GI50 (NB1691 cells) [µM]	Reduction in bioluminescence vs. control [2, 6] [%]	Reduction in bioluminescence vs. control [2, 7] [%]	%ILS (Mean) [2, 8] [%]	%ILS (Median) [2] [%]	%ILS (Median) ([2]; listed as Temozolomide) [%]	Mean Survival [2, 9] [days]	Median Survival [2, 9] [days]	Reduction in bioluminescence vs. control [3, 6] [%]	Reduction in bioluminescence vs. control [3, 7] [%]	%ILS (Mean) [3, 8] [%]	%ILS (Median) [3] [%]	%ILS (Median) ([3]; listed as Temozolomide) [%]	Mean Survival [3, 9] [days]	Median Survival [3, 9] [days]	Ki67 positive cells vs. control (IHC) [4]	Main toxicities in children [5]
COc1cc(C(=O)O)ccc1NC(=O)[C@@H]1N[C@@H](CC(C)(C)C)[C@](C#N)(c2ccc(Cl)cc2F)[C@H]1c1cccc(Cl)c1F [idasanutlin, Idasanutlin]	~5000	0.041	–	–	–	–	–	–	–	–	–	–	–	–	–	–	–	–
Cn1nnc2c(C(N)=O)ncn2c1=O [temozolomide]	–	868	36	39	11	14	14	49	49	35	24	16	6	6	41	37	did not reduce	thrombocytopenia and neutropenia

Source: publication PMC6491995, “Preclinical evaluation of the first intravenous small molecule MDM2 antagonist alone and in combination with temozolomide in neuroblastoma” (International Journal of Cancer, 2019)
